Results: patent US6677456B2, “Pentacyclic taxan compound” (Daiichi Pharmaceutical Co., Ltd., priority 1999, dated 2004)
Like-named read-outs stand apart in the source and are kept apart here.

Experiments:
B16 Melanoma BL6 = test: Antitumor test, B16 Melanoma BL6 subcutaneously transplanted into mice (Test Example 2); assay type: in vivo, mice (C57BL/6); conditions: 4 days after transplantation, tumor weight after 15 days
Method: B16 Melanoma BL6 was subcutaneously transplanted into mice (C57BL/6), and each compound was administered 4 days thereafter. […] In the case of oral administration, each compound was administered by suspending it in a 0.5% carboxymethylcellulose sodium aqueous solution. Each animal was anatomized after 15 days of the transplantation to measure tumor weight. Antitumor effect was calculated by the following formula.
(§1) {1−(tumor weight of compound-administered group/tumor weight of solvent-administered group)}×100
Six mice were used in each group.

[1] = Platelet numbers, renal toxicity findings and deaths in the Meth A-bearing mice (Test Example 1); assay type: in vivo, mice (Balb/c); conditions: intravenous, 17th day; for Platelet numbers: % of solvent-administered group
Method: (§2) Mouse fibrosarcoma Meth A was subcutaneously transplanted into mice (line name; Balb/c), and each compound dissolved in a mixed solvent of ethanol, Tween 80 and 5% glucose (5:5:90 (v/v)) was administered by intravenous injection after 6, 8 or 10 days (or only after 6 days) of the transplantation. Each animal was anatomized on the 17th day to examine tumor weight, platelet numbers and renal toxicity. Six mice were used in each group.
The number of platelets was expressed by (platelets of compound-administered group/platelets of solvent-administered group)×100.
The renal toxicity findings were expressed as “changed” when a change such as fading was found by macroscopic observation at the time of anatomy or when a change such as precipitation of hyaline droplet substance in the renal tubular cell cytoplasm was found by a histological inspection.

[2] = Blood concentration and oral BA in monkey after single intravenous or oral dose (Test Example 4); assay type: in vivo, female Macaca irus (monkey); conditions: for Oral BA: ratio of oral AUC to intravenous AUC; for AUC(0-inf): female, Macaca irus (cynomolgus), blood
Method: The AUCO0-∞ means area under the blood concentration time curve of a drug concentration in blood during a period of from the time of administration (0 h) to the infinite time and it can be calculated in accordance with the method (trapezoidal rule) disclosed in Kiyoshi Yamaoka and Yusuke Tanigawara, Yakubutsu Sokudoron Nyumon (A Guide to Pharmacokinetics), pages 116-117. In addition, ratio of the AUC at the time of oral administration to the AUC at the time of intravenous administration was calculated as oral BA.
Animal: female Macaca irus, Administration method (compound of formula (B)) [intravenous] EtOH:Tween 80:5% glucose=5:5:90, [oral] […] 10% β-CyD-SBE7 (pH=3.5 in physiological saline), [oral] 40 mM acetate buffer (pH 4.0)

[3] = test system: Mouse fibrosarcoma Meth A; test: Antitumor test, mouse fibrosarcoma Meth A subcutaneously transplanted into mice (Test Example 1); assay type: in vivo, mice (Balb/c); conditions: intravenous, tumor weight on 17th day
Method: as §2
Antitumor effect was calculated by the following formula.
as §1

human liver microsome = test: Metabolism in Human Microsome P450 (Test Example 3)
Method: Each of the samples to be evaluated was dissolved in acetonitrile/water (1:1, v/v) to a concentration of 500 μM, and the solution was mixed with human liver microsome (Xenotech LLC) and other components such as various coenzymes and buffer solution and allowed to generate the metabolic reaction at 37° C. The reaction solution was composed of phosphate buffer (0.076 M; final concentration, the same shall apply hereinafter), sample to be evaluated (10 μM), human liver microsome (1 mg/ml), glucose 6-phosphate (10 mM), glucose-6-phosphate dehydrogenase (1 unit/ml), magnesium chloride (4 mM) and reduced nicotinamide adenine dinucleotide phosphate (β-NADPH, 1 mM), and 500 μl of the solution was used in one reaction. In this case, the reaction solution excluding β-NADPH was incubated in advance at 37° C. for 2 minutes and then the reaction was started by adding a β-NADPH aqueous solution (50 mM, 10 μl).
The reaction was terminated by adding 1 ml of ice-cooled acetonitrile 1, 2 or 5 minutes after commencement of the reaction.
In this connection, a sample of 0 minute after commencement of the reaction was prepared by adding water instead of the β-NADPH aqueous solution and immediately adding 1 ml of acetonitrile. A 100 μl portion of an internal standard substance was added to each of these samples, and the reaction solution was centrifuged for 15 minutes. The resulting supernatant was injected into a high performance liquid chromatography (HPLC) to measure concentration of the sample to be evaluated. […] By plotting the amount of formed metabolite against the reaction time and carrying out linear regression by the method of least squares, amount of the metabolite formed per 1 minute (metabolic rate constant: k (nmol/min/mg protein)) was calculated from the slope.
From the thus obtained metabolic rate constant k (nmol/min/mg protein), the liver-specific clearance (CLint) was calculated by the following formula. […]
Theoretical bioavailability (F) value was calculated from the CLh by the following formula.

With `CC(=O)O[C@@]12CO[C@@H]1C[C@H](O)[C@@]1(C)C(=O)[C@H](O)C3=C(C)[C@@H](OC(=O)[C@H](O)[C@@H](NC(=O)OC(C)(C)C)c4ccccc4)C[C@@](O)([C@@H](OC(=O)c4ccccc4)[C@H]21)C3(C)C` [(A), taxotere] as the compound, how does the Antitumor effect (B16 Melanoma BL6; 180.0 mg/kg intravenous) read?
The Antitumor effect was 95.7%.

What about the Antitumor effect (B16 Melanoma BL6; 600.0 mg/kg oral) of the same compound?
Its Antitumor effect is 6.2%.

Which Platelet numbers ([1]; 22.5 mg/kg × 1) does the source give for `CC(=O)O[C@@]12CO[C@@H]1CC[C@@]1(C)[C@@H]3O[C@H](CN4CCOCC4)O[C@@H]3C3=C(C)[C@@H](OC(=O)[C@H](O)[C@@H](NC(=O)OC(C)(C)C)c4ccccn4)C[C@@](O)([C@@H](OC(=O)c4ccccc4)[C@@H]12)C3(C)C` [Compound (B)] here?
Its Platelet numbers is 124%.

And the Renal toxicity findings ([1]; 32.4 mg/kg × 1)?
Its Renal toxicity findings is “no change”.

And the Platelet numbers ([1]; 32.4 mg/kg × 1)?
The Platelet numbers was 142%.

And the “Oral BA” value ([2]; 1.6 mg/kg)?
The value was 7.1%.

What about the AUC(0-inf) ([2]; single dose 1.6 mg/kg intravenous, one monkey, read-out: AUC0-∞ Intravenous) of the same compound?
Its AUC(0-inf) is 394 ng·h/mL.

What about the AUC(0-inf) ([2]; single dose 1.6 mg/kg oral, one monkey (different individual), read-out: AUC0-∞ Oral) of the same compound?
The AUC(0-inf) was 28.1 ng·h/mL.

And the “Oral absorption property in monkey (in words)” value ([2]; in vivo, po)?
The value was “low”.

What about the Antitumor effect (B16 Melanoma BL6; 13.3 mg/kg oral) of the same compound?
Its Antitumor effect is 90.5%.

And the Antitumor effect (B16 Melanoma BL6; 20.0 mg/kg oral)?
The Antitumor effect was 97.4%.

And the Antitumor effect ([3]; 22.5 mg/kg × 1 (day 6))?
The Antitumor effect was 69%.

And the Antitumor effect ([3]; 32.4 mg/kg × 1 (day 6), three deaths among 6 animals)?
The Antitumor effect was 83%.

Which melting point does the source give for `COc1ccc([C@H](NC(=O)OC(C)(C)C)[C@@H](O)C(=O)O[C@H]2C[C@@]3(O)[C@@H](OC(=O)c4ccccc4)[C@H]4[C@@](C)(CC[C@H]5OC[C@]54OC(C)=O)[C@@H]4O[C@H](CN5CCOCC5)O[C@@H]4C(=C2C)C3(C)C)nc1` [Example 1, (1S,2S,3R,4S,5R,8R,9S,10R,13S)-4-Acetoxy-2-benzoyloxy-5,20-epoxy-1-hydroxy-9,10-[(1S)-2-(morpholino)ethylidenedioxy]tax-11-en-13-yl (2R,3S)-3-(tert-butoxycarbonylamino)-2-hydroxy-3-(5-methoxy-2-pyridyl)propionate] here?
Its melting point is 160 to 161 °C.

Which “Oral BA” value ([2]; 1.8 mg/kg) does the source give for `CC(=O)O[C@@]12CO[C@@H]1CC[C@@]1(C)[C@@H]3O[C@H](CN(C)C)O[C@@H]3C3=C(C)[C@@H](OC(=O)[C@H](O)[C@@H](NC(=O)OC(C)(C)C)c4ncccc4F)C[C@@](O)([C@@H](OC(=O)c4ccccc4)[C@@H]12)C3(C)C` [Example 7, (1S,2S,3R,4S,5R,8R,9S,10R,13S)-4-Acetoxy-2-benzoyloxy-9,10-[(1S)-2-(dimethylamino)ethylidenedioxy]-5,20-epoxy-1-hydroxytax-11-en-13-yl (2R,3S)-3-(tert-butoxycarbonylamino)-3-(3-fluoro-2-pyridyl)-2-hydroxypropionate] here?
The value was 62.4%.

And the AUC(0-inf) ([2]; single dose 1.8 mg/kg intravenous, average of 4 monkeys, read-out: AUC0-∞ Intravenous)?
The AUC(0-inf) was 994 ng·h/mL.

What about the AUC(0-inf) ([2]; single dose 1.8 mg/kg oral, average of 4 monkeys, read-out: AUC0-∞ Oral) of the same compound?
The AUC(0-inf) was 621 ng·h/mL.

And the Antitumor effect (B16 Melanoma BL6; 7.9 mg/kg intravenous)?
Its Antitumor effect is 91.5%.

What about the Antitumor effect (B16 Melanoma BL6; 7.9 mg/kg oral) of the same compound?
The Antitumor effect was 91.5%.

And the Antitumor effect (B16 Melanoma BL6; 11.9 mg/kg intravenous)?
Its Antitumor effect is 95.5%.

What about the Antitumor effect (B16 Melanoma BL6; 11.9 mg/kg oral) of the same compound?
Its Antitumor effect is 97.4%.

With “(1S,2S,3R,4S,5R,8R,9S,10R,13S)-4-Acetoxy-2-benzoyloxy-5,20-epoxy-1-hydroxy-9,10-[(1S)-2-(morpholino)ethylidenedioxy]tax-11-en-13-yl (2R,3S)-3-(tert-butoxycarbonylamino)-3-(5-fluoro-2-pyridyl)-2-hydroxypropionate [Example 3]” as the compound, how does the “Theoretical F value of unchanged compound” value (human liver microsome; calculated from CLh (Well-stirred model, Q 20 ml/min/kg)) read?
The value was 0.92.

What about the Metabolic rate constant (human liver microsome; human liver microsome 1 mg/ml, sample 10 μM, 37° C., 0-5 minutes) of the same compound?
Its Metabolic rate constant is 0.02 nmol/min/mg protein.

And the Clint (human liver microsome; liver-specific clearance calculated from the metabolic rate constant)?
The Clint was 1.8 mL/min/kg.
